What all share (assay): NCI tumour cell line growth inhibition, 48 h
Test [1] deals with SK-MEL-5.
The test system of test [2] is MDA-N.
The test system of test [3] is MCF7.
Test [4] deals with LOX IMVI.
The test system of test [5] is PC-3.
The test system of test [6] is TK-10.
For test [7], the system named is ACHN.
Test [8] deals with SN12C.
The test system of test [9] is SNB-19.
Test [10] has as its system SK-MEL-2.
The test system of test [11] is KM12.
Test [12] concerns 786-0.
Test [13] concerns HOP-92.
Test [14] has as its system RXF 393.
Test [15] concerns A549.
Test [16] has as its system M14.
Test [17] has as its system OVCAR-5.
The subject of test [18] is RPMI-8226.
Test [19] has as its system SR.

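Values below derive from 48-hour exposures of cells grown in 96-well plates, with endpoints linearly interpolated between the two concentrations bracketing the appropriate inhibition level. Here, GI50 denotes the concentration required for 50% inhibition of growth.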 Activity calls are given as the source filed them. Rule as the data show it: active = GI50 up to about 1.1 µM and inactive = higher.

Consider `CC[C@@]1(CCC(=O)NCCc2c[nH]c3ccccc23)CCC(=O)N2CCc3c([nH]c4ccccc34)[C@H]21`, for which the GI50 is 24.2 µM (inactive) in test [1]; 12.6 µM (inactive) in test [2]; 4.44 µM (inactive) in test [3]; 27.4 µM (inactive) in test [4]; 5.56 µM (inactive) in [5]; 16.7 µM (inactive) in [6]. Further, the GI50 in test [7] was 15.3 µM (inactive); in test [8], 39.5 µM (inactive); in test [9], 9.71 µM (inactive); in [10] it was 17.1 µM (inactive); in test [11] it was 4.19 µM (inactive); in [12], 11.7 µM (inactive). Besides, the GI50 in test [13] is 79.3 µM (inactive); in test [14] it was 6.12 µM (inactive); in test [15], 8.73 µM (inactive); in [16], 12.6 µM (inactive); in test [17], 22.8 µM (inactive); in test [18], 3.08 µM (inactive).

Consider `O=C(/C=C/c1ccc(O)c(O)c1)OCCc1ccc2ccccc2c1`, for which the GI50 is 3.15 µM (inactive) in [1]; 2.38 µM (inactive) in test [2]; 2.74 µM (inactive) in test [3]; 6.98 µM (inactive) in test [4]; 7.55 µM (inactive) in [5]; 7.11 µM (inactive) in [6]. The GI50 in test [7] is 2.86 µM (inactive); in test [8], 5.26 µM (inactive); in test [9], 12.8 µM (inactive); in [10], 1.29 µM (inactive); in test [11], 3.64 µM (inactive); in test [12], 8.59 µM (inactive). Also, the GI50 in test [13] is 6.35 µM (inactive); in [14] it was 9.46 µM (inactive); in test [15], 9.35 µM (inactive); in [16], 4.95 µM (inactive); in test [17], 16.1 µM (inactive).

Consider `O[C@@H]1[C@H](OC2c3ccccc3-c3ccccc32)[C@H](OCc2ccccc2)[C@@H]2OC[C@H]1O2`, for which the GI50 is > 100 µM (inactive) in test [1]; > 100 µM (inactive) in test [2]; > 100 µM (inactive) in test [3]; > 100 µM (inactive) in test [4]; 63.2 µM (inactive) in test [5]; > 100 µM (inactive) in [6]. Moreover, the GI50 in test [7] is > 100 µM (inactive); in [8], > 100 µM (inactive); in test [9], 58.2 µM (inactive); in test [10] it was > 100 µM (inactive); in [11] it was > 100 µM (inactive); in test [12], 19.7 µM (inactive). In addition, the GI50 in test [13] is > 100 µM (inactive); in test [14] it was > 100 µM (inactive); in [15], 34.6 µM (inactive); in test [16], > 100 µM (inactive); in test [17], > 100 µM (inactive); in [18], 71.9 µM (inactive).

As for `COC(=O)C(c1n[nH]c2ccccc12)C(C(=O)OC)c1n[nH]c2ccccc12` (centres undefined), the GI50 in [4] is 68.2 µM (inactive); in test [6] it was > 100 µM (inactive); in test [7] it was 49.4 µM (inactive); in [8], 31.1 µM (inactive); in test [9], > 100 µM (inactive); in test [11], > 100 µM (inactive). The GI50 in test [12] was 44.9 µM (inactive); in test [14], 24.9 µM (inactive); in [15], > 100 µM (inactive); in test [16] it was 32.1 µM (inactive); in [17], > 100 µM (inactive); in test [19], 30.4 µM (inactive). Further, the GI50 in test [18] is 13.5 µM (inactive).

For the compound `O=C1NC2ON=C(c3ccccc3)C2C2ON=C(c3ccccc3)N12` (centres undefined), the GI50 in test [1] was 54 µM (inactive); in test [2], 39.6 µM (inactive); in test [3], 77.4 µM (inactive); in [4], 90.4 µM (inactive); in test [5], 72.4 µM (inactive); in [6], > 100 µM (inactive). Further, the GI50 was > 100 µM (inactive) in test [7]; 92 µM (inactive) in [9]; 69.2 µM (inactive) in test [11]; > 100 µM (inactive) in test [12]; > 100 µM (inactive) in test [14]; > 100 µM (inactive) in test [15]. The GI50 in test [16] and in test [17] was > 100 µM (inactive) in each case.

As for `O=C(c1cccc(C(=O)c2ccc3c4c(cccc24)C(=O)N(c2ccccc2)C3=O)c1)c1ccc2c3c(cccc13)C(=O)N(c1ccccc1)C2=O`, the GI50 in test [1] was > 100 µM (inactive); in test [2], > 100 µM (inactive); in test [3], 28.2 µM (inactive); in test [4], 23.3 µM (inactive); in test [5], > 100 µM (inactive); in [6] it was 69.8 µM (inactive). The GI50 in [7] is > 100 µM (inactive); in test [8] it was > 100 µM (inactive); in [9] it was > 100 µM (inactive); in test [11] it was > 100 µM (inactive); in test [12] it was > 100 µM (inactive); in [13], 42.3 µM (inactive). Besides, the GI50 in [14], in test [15], in [16], in [17] and in [18] was > 100 µM (inactive) in each case.

On to `Cc1cc(C)nc(NS(=O)(=O)c2ccc(NC(=O)c3cccc4c(Nc5ccc(S(=O)(=O)N=C(N)N)cc5)c5ccc(Cl)cc5nc34)cc2)n1`, for which the GI50 in test [4] was 19.8 µM (inactive); in test [6], 40 µM (inactive); in [7], 80.9 µM (inactive); in test [8], 29.8 µM (inactive); in test [9] it was 23.1 µM (inactive); in test [11], 30.5 µM (inactive). For the same compound, the GI50 is 17.7 µM (inactive) in test [12]; 18.9 µM (inactive) in test [14]; > 100 µM (inactive) in test [16]; > 100 µM (inactive) in test [17]; 27.1 µM (inactive) in [19]; 23.5 µM (inactive) in [18].

On to `CO[C@]12C[C@H](CNC(=O)c3cc(Br)c(Br)[nH]3)O[C@H]1NC(=O)N2`, for which the GI50 in test [1], in test [3], in test [4], in test [5], in test [6] and in test [7] was > 100 µM (inactive) in each case. Moreover, the GI50 is > 100 µM (inactive) in test [8]; > 100 µM (inactive) in test [9]; > 100 µM (inactive) in [10]; > 100 µM (inactive) in [11]; > 100 µM (inactive) in test [12]; 25.2 µM (inactive) in test [13]. The GI50 in test [15], in test [16], in test [17], in test [19] and in test [18] was > 100 µM (inactive) throughout.

Turning to `CCc1cc2c(c3c1CCC3=O)CC1(Cc3ccc(C)cc3C1)C2` (centres undefined), the GI50 in test [1] was 18.9 µM (inactive); in test [2], 38.1 µM (inactive); in test [3], 32.2 µM (inactive); in test [4], 50.4 µM (inactive); in [5], 23 µM (inactive); in test [6] it was > 100 µM (inactive). Besides, the GI50 is 27.3 µM (inactive) in [7]; 43.4 µM (inactive) in test [8]; 31.5 µM (inactive) in test [10]; 71.3 µM (inactive) in test [11]; 96.8 µM (inactive) in test [12]; 22.7 µM (inactive) in [13]. Moreover, the GI50 was 34.8 µM (inactive) in test [14]; 18.2 µM (inactive) in [15]; > 100 µM (inactive) in test [16]; 29.4 µM (inactive) in [17]; 22.2 µM (inactive) in [18].

In the case of `Nc1cc2ncnc(Nc3cccc(Br)c3)c2cn1`, the GI50 is 42.7 µM (inactive) in [1]; 31 µM (inactive) in [2]; 38 µM (inactive) in test [4]; 28.5 µM (inactive) in [5]; 2.52 µM (inactive) in test [6]; 3.44 µM (inactive) in test [7]. Besides, the GI50 is 17.6 µM (inactive) in test [8]; 67.5 µM (inactive) in test [9]; 19.8 µM (inactive) in [10]; 22.2 µM (inactive) in test [11]; 19.5 µM (inactive) in test [12]; 26.4 µM (inactive) in [13]. For the same compound, the GI50 in test [14] was 41.5 µM (inactive); in test [15], 35.9 µM (inactive); in [16], 38 µM (inactive); in test [17], 26.7 µM (inactive); in test [19], > 100 µM (inactive); in [18], 52.5 µM (inactive).

As to `NNC(=O)c1ccccc1NC(=O)/C(=C/c1ccccc1O)NC(=O)c1ccccc1`, the GI50 in test [1] is 72.3 µM (inactive); in [2], 4.56 µM (inactive); in test [3] it was 5.07 µM (inactive); in test [4], 47.1 µM (inactive); in [6] it was > 100 µM (inactive); in test [7], 17.9 µM (inactive). The GI50 in test [8] was 28 µM (inactive); in test [9] it was 24.1 µM (inactive); in test [11], 5.62 µM (inactive); in [12], 16.3 µM (inactive); in test [13], 38.9 µM (inactive); in [14] it was 63 µM (inactive). Also, the GI50 in test [15] was > 100 µM (inactive); in test [16], 55.6 µM (inactive); in [17] it was > 100 µM (inactive); in test [19], 0.0156 µM (active); in test [18], > 100 µM (inactive).

For `C=CCC1(C#N)C(=S)NC2=C(C(=O)CC(C)(C)C2)C1c1ccccc1` (centres undefined), the GI50 was 45.6 µM (inactive) in [1]; 70.6 µM (inactive) in test [2]; 68.9 µM (inactive) in test [4]; 32.2 µM (inactive) in test [5]; 38.5 µM (inactive) in test [8]; 31 µM (inactive) in test [9]. The GI50 in [10] was 46.8 µM (inactive); in test [11], 32.7 µM (inactive); in [12], 35.9 µM (inactive); in test [13] it was 35.1 µM (inactive); in test [14], 42.7 µM (inactive); in [15], 33.8 µM (inactive). For the same compound, the GI50 was 59.8 µM (inactive) in test [16], > 100 µM (inactive) in [17], 50.6 µM (inactive) in [19] and 52.5 µM (inactive) in test [18].

These data come from ChEMBL document CHEMBL1201862, “PubChem BioAssay data set” (2004).
